Measurements published in article PMC9477487, “Multitarget drugs as potential therapeutic agents for alzheimer’s disease. A new family of 5-substituted indazole derivatives as cholinergic and BACE1 inhibitors” (Journal of Enzyme Inhibition and Medicinal Chemistry, 2022).

What was measured:
[1] = biological target: T1, AChE from human erythrocytes (Homo sapiens, UniProt P22303); assay: In vitro AChE inhibition assay (Ellman); type: biochemical; conditions: for IC50: mean ± SEM, 3 experiments, acetylthiocholine substrate; for inhibition at 10 µM: 10 µM compound, read-out: AChE percentage of inhibition at 10 µM
T1 construct: AChE from human erythrocytes (EC 3.1.1.7); purchased Sigma; host or cells: human erythrocytes (tissue-derived)
T1 sequence (P22303 32-617 isoform P22303-2 limits assumed): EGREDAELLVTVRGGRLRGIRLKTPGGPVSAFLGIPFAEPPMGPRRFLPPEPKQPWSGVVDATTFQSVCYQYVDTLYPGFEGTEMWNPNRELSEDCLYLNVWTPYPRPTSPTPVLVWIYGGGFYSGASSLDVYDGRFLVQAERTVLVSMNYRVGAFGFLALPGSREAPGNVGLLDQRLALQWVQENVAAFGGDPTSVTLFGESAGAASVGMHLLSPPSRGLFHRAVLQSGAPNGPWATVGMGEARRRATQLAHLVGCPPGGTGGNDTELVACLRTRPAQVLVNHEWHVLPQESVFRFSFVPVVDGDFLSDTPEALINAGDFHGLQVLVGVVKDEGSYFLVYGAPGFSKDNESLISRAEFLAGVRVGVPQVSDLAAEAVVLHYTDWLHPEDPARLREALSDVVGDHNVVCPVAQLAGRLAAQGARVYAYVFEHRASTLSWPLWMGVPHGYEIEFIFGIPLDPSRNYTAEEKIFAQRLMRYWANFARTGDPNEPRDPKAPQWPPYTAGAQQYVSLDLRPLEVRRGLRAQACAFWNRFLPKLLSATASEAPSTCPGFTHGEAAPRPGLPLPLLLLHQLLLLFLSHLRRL
Experimental: (§1) AChE from human erythrocytes (EC 3.1.1.7) (min. 500 units/mg protein in buffered aqueous solution) and BuChE from human serum (EC 3.1.1.8) (3 units/mg protein, lyophilised powder) were purchased from Sigma.
(§2) Compounds were evaluated in 100 mM phosphate buffer pH 8.0 at 30 °C, using acetylthiocholine and butyrylthiocholine (0.4 mM) as substrates, respectively. In both cases, 5,5-dithio-bis(2-nitrobenzoic) acid (DTNB, Ellman’s reagent, 0.2 mM) was used and the values of IC50 were calculated by UV spectroscopy from the absorbance changes at 412 nm. Experiments were performed in triplicate.

BuChE from human serum = biological target: T2, BuChE from human serum (Homo sapiens, UniProt P06276); assay: In vitro BuChE inhibition assay (Ellman); type: biochemical; conditions: for inhibition at 10 µM / BuChE percentage of inhibition at 10 µM: 10 µM compound; for inhibition at 10 µM: read-out: BuChE percentage of inhibition at 10 µM; for IC50: mean ± SEM, 3 experiments, butyrylthiocholine substrate
T2 construct: BuChE from human serum (EC 3.1.1.8); purchased Sigma; host or cells: human serum (tissue-derived)
T2 sequence (P06276 29-602): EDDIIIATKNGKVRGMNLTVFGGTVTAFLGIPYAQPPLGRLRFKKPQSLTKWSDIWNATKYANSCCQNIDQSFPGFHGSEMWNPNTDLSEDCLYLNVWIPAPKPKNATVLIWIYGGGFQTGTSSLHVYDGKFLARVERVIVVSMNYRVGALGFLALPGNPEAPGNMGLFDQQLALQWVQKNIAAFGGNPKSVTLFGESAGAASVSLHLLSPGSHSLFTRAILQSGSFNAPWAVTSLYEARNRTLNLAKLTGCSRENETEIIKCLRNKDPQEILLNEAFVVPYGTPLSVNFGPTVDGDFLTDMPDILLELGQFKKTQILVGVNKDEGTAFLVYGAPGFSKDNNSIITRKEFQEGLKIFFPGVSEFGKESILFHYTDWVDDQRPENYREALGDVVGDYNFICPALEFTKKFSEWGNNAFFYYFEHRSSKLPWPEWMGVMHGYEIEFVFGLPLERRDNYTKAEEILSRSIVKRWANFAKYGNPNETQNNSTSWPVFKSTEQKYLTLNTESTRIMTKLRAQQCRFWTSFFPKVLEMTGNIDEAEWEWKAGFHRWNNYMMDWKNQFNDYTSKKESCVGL
Experimental: as §1, §2

BACE1 = biological target: T3, BACE1 (Homo sapiens, UniProt P56817); assay: BACE1 enzymatic FRET assay; type: biochemical; conditions: for IC50: pH 4.5, mean ± SEM; for inhibition at 10 µM: pH 4.5, 10 µM compound, read-out: BACE1 percentage of inhibition at 10 µM
T3 construct: purchased Invitrogen
T3 sequence (P56817 46-501): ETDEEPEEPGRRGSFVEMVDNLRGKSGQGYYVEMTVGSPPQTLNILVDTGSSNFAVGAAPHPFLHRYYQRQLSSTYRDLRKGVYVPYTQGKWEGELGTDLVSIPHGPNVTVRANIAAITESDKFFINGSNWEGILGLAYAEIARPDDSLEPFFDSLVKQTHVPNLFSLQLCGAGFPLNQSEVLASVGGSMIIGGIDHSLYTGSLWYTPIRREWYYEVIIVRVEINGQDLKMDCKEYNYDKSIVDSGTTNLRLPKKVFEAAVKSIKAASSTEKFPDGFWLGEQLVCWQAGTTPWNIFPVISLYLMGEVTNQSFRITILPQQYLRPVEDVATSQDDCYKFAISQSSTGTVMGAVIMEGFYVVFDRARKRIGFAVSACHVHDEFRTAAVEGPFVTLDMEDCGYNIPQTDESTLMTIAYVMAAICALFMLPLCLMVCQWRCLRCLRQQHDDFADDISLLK
Experimental: The BACE1 ([…]) assay was carried out according to the manufacturer’s described protocol which is available from Invitrogen[36].
Briefly, BACE1 in vitro assays were carried out using fluorescence resonance energy transfer (FRET). An APP-based peptide substrate (rhodamine-EVNLDAEFK-quencher, Km of 20 μM) carrying the Swedish mutation and containing rhodamine as a fluorescence donor and a quencher acceptor at each end was used. The intact substrate is weakly fluorescent and becomes highly fluorescent upon enzymatic cleavage. The assays were conducted in 50 mM sodium acetate buffer, pH 4.5, at a final enzyme concentration of 1 U/mL. Inhibitor screening was performed at 10 μM. The mixture was incubated for 60 min at 25 °C under dark conditions and then stopped with 2.5 M sodium acetate. Fluorescence was measured with a FLUOstar Optima (BMG Labtechnologies GmbH, Offenburg, Germany) microplate reader at 545 nm excitation and 585 nm emission. The assay kit was validated by the manufacturer.

[2] = Oxygen radical absorbance capacity assay (ORAC-FL); conditions: for ORAC (Oxygen Radical Absorbance Capacity): pH 7.4
Experimental: The ORAC-FL method of Ou et al.[37], partially modified by Dávalos et al.[38], was followed, using a FLUOstar Optima (BMG Labtechnologies GmbH, Offenburg, Germany) with 485 excitation and 520 emission filters. 2,2′-Azobis-(amidinopropane) dihydrochloride (AAPH), (±)-6-hydroxy-2,5,7,8-tetramethylchromane-2-carboxylic acid (trolox) and fluorescein (FL) were purchased from Sigma-Aldrich. The reaction was carried out in 75 mM phosphate buffer (pH 7.4) and the final reaction mixture was 200 µL. […] The mixture was pre-incubated for 30 min at 37 °C and then AAPH solution (25 µL, 240 mM) was added rapidly using a multichannel pipette. The microplate was immediately placed in the reader and the fluorescence was recorded every 90 s. for 90 min. The microplate was automatically shaken prior to each reading. Samples were measured at four different concentrations (10^−1 µM). A blank (FL + AAPH in phosphate buffer) instead of the sample solution and four calibration solutions using trolox (10^−1 µM) was also used in each assay. All of the reaction mixtures were prepared in duplicate and at least three independent assays were performed for each sample. Raw data were exported from the Fluostar optima Software to an Excel sheet for further calculations. Antioxidant curves (fluorescence vs. time) were represented and the area under the curve (AUC) is calculated as: AUC =f1/f0+fi/f0+ … +f34/f0+ (f35/f0) where fo = initial fluorescence reading at 0 min and fi = fluorescence reading at time i. The net AUC is obtained by subtracting the AUC of the blank from that of a sample. The relative Trolox equivalent ORAC value is calculated as: Relative ORAC value =[(AUC sample - AUC blank)/(AUCT rolox - AUC blank)](molarity of trolox/molarity of sample)

BuChE = biological target: T4, BuChE (Homo sapiens, UniProt P06276); assay: Kinetic study of BuChE inhibition (Lineweaver-Burk plots); type: biochemical; design: key to Type of Inhibition (BuChE): M: mixed
T4 construct: BuChE from human serum (EC 3.1.1.8); purchased Sigma; host or cells: human serum (tissue-derived)
T4 sequence (P06276 29-602): as the sequence (P06276 29-602) above
Experimental: To investigate the mechanism of action of the compounds on AChE or BuChE, a kinetic analysis was performed. The experiments were carried out using combinations of four substrate concentrations and three inhibitor concentrations. Double-reciprocal Lineweaver–Burk plots of the data obtained, in which each point is the mean of three different experiments, were analysed.
Competitive inhibitors have the same y-intercept as uninhibited enzymes (since Vmax is unaffected by competitive inhibitors the inverse of Vmax also doesn’t change), but there are different slopes and x-intercepts. Non-competitive inhibition produces plots with the same x-intercept as uninhibited enzyme (Km is unaffected) but different slopes and y-intercepts. Uncompetitive inhibition causes different intercepts on both the y- and x-axes, but the same slope. Mixed inhibitors cause intersects above or below the x-axes.
The Ki, values were determined by fitting the kinetic data to a competitive, non-competitive, or mixed inhibition model by nonlinear regression analysis using GraphPad Prism[35].

Raw 264.7 cells = assay: Cell viability (MTT) of Raw 264.7 cells; type: cell-based; conditions: 10 µM
Experimental: (§3) Cell viability was measured using the 3-(4,5-Dimethylthiazol-2-yl)-2,5-diphenyltetrazolium bromide (MTT) assay, based on the ability of viable cells to reduce yellow MTT to blue formazan. Briefly, cells cultured in 96-well plates and treated with the indicated compounds for 16 h were incubated with MTT (0.5 mg/ml, 4 h) and subsequently solubilised in DMSO. The extent of reduction of MTT was quantified by absorbance measurement at 595 nm according to the manufacturer’s protocol.

[3] = test system: SH-SY5Y human neuroblastoma cells; assay: Amyloid-beta peptide neurotoxicity, neuroprotection in SH-SY5Y cells (MTT); type: cell-based; conditions: 5 µM compound added 1 h prior to 5 µM Aβ, 24 h
Experimental: SH-SY5Y human neuroblastoma cells were obtained from American Type Culture Collection. Cells were maintained at 37 °C in a 5% CO2 humidified atmosphere in DMEM-Glutamax supplemented with heat-inactivated 10% foetal bovine serum and 1% penicillin/streptomycin. All experiments with Aβ1–42 used DMEM-Glutamax without phenol in the media.
The compounds were dissolved in 100% dimethyl sulphoxide (DMSO) as a 10 mM stock and diluted with culture medium to final concentrations. Aβ1–42 powder (AnaSpec, Inc., San Jose, CA) was dissolved in acetic acid (0.1 M) obtaining a 2 μg/μL stock. Then Aβ1-42 was oligomerised in no phenol red DMEM for 24 h at 37 °C. The final concentration in cells cultures was 5 μM. All dilutions of stock were prepared fresh before addition to the culture medium.
SH-SY5Y cells were treated with 5 μM Aβ1-42 for 24 h and pre-treated or not for 1 h with increasing concentrations of compounds. After treatment, cultures were processed for a cell viability assay using MTT assay.
as §3

Row | SMILES | IC50 [1] [µM] | inhibition at 10 µM (BuChE from human serum) [%] | IC50 (BuChE from human serum) [µM] | IC50 (BACE1) [µM] | Antioxidant properties in relation to Trolox [2] | ORAC (Oxygen Radical Absorbance Capacity) [2] | inhibition at 10 µM (BACE1) [%] | inhibition at 10 µM [1] [%] | Type of Inhibition (BuChE) (BuChE) | Cytotoxicity on Raw 264.7 cells viability (Raw 264.7 cells) | Aβ-induced death of SH-SY5Y cells [3] | BuChE percentage of inhibition at 10 µM (BuChE from human serum) | BuChE inhibition mode of action (in words) (BuChE)
1 | CN1CCN(C(=O)Nc2ccc3c(c2)c(OCc2ccccc2)nn3Cc2cccc(Cl)c2Cl)CC1 [Compound 11] | > 10 | 47 | > 10 | 2.8 ± 0.5 | higher than 60% | 1.1 ± 0.1 μmol of Trolox equivalents/μmol of tested compound | – | – | – | – | – | – | –
2 | CN(C(=O)Nc1ccc2c(c1)c(OCc1cccc3ccccc13)nn2Cc1ccc(Cl)cc1)c1ccccc1 [Compound 9] | > 10 | – | > 10 | > 10 | higher than 60% | 0.6 ± 0.1 μmol of Trolox equivalents/μmol of tested compound | 29 | – | – | – | – | – | –
3 | CCN(CC)C(=O)Nc1ccc2c(c1)c(OCc1cccc3ccccc13)nn2Cc1ccccc1 [Compound 8] | > 10 | – | > 10 | 9.1 ± 0.5 | higher than 60% | 0.9 ± 0.1 μmol of Trolox equivalents/μmol of tested compound | – | 29 | – | – | – | – | –
4 | Clc1cccc(Cn2nc(OCc3ccccc3)c3cc(NCCCN4CCCCC4)ccc32)c1Cl [Compound 2] | > 10 | – | 0.4 ± 0.04 | 3.2 ± 0.2 | – | 0.7 ± 0.1 μmol of Trolox equivalents/μmol of tested compound | – | 27 | M | show cytotoxicity | able to prevent cell death | – | –
5 | Nc1ccc2c(c1)c(OCc1cccc(Cl)c1Cl)nn2Cc1cccc2ccccc12 [Compound 30] | > 10 | – | > 10 | – | – | 0.8 ± 0.1 μmol of Trolox equivalents/μmol of tested compound | 79 | 36 | – | – | – | – | –
6 | O=C(Nc1ccc2c(c1)c(OCc1cccc3ccccc13)nn2Cc1ccc(Cl)c(Cl)c1)N(c1ccccc1)c1ccccc1 [Compound 10] | > 10 | – | > 10 | > 10 | – | 0.2 ± 0.1 μmol of Trolox equivalents/μmol of tested compound | 10 | 28 | – | – | – | – | –
7 | Nc1ccc2c(c1)c(OCc1ccc3ccccc3c1)nn2Cc1ccc2ccccc2c1 [Compound 28] | 4.1 ± 0.2 | 24 | > 10 | 8.9 ± 0.5 | – | 0.3 ± 0.1 μmol of Trolox equivalents/μmol of tested compound | – | – | – | – | – | very slight inhibition | –
8 | Nc1ccc2c(c1)c(OCc1ccccc1)nn2Cc1ccccc1 [Compound 27, 5-amino-1-benzyl-3-(benzyloxy)indazole] | 8.6 ± 0.5 | 21 | > 10 | > 10 | – | 0.9 ± 0.1 μmol of Trolox equivalents/μmol of tested compound | 2 | – | – | – | – | very slight inhibition | –
9 | Nc1ccc2c(c1)c(OCc1cccc3ccccc13)nn2Cc1ccccc1 [Compound 32] | > 10 | – | > 10 | > 10 | – | 1.0 ± 0.1 μmol of Trolox equivalents/μmol of tested compound | – | – | – | – | – | – | –
10 | Nc1ccc2c(c1)c(OCc1ccc3ccccc3c1)nn2Cc1ccc(Cl)c(Cl)c1 [Compound 31] | 6 ± 0.5 | 30 | > 10 | – | – | 0.63 ± 0.04 μmol of Trolox equivalents/μmol of tested compound | 69 | – | – | – | – | very slight inhibition | –
11 | Nc1ccc2c(c1)c(OCc1cccc3ccccc13)nn2Cc1ccc(Cl)cc1 [Compound 33] | > 10 | – | > 10 | 5.8 ± 0.5 | – | 1.0 ± 0.1 μmol of Trolox equivalents/μmol of tested compound | – | – | – | – | – | – | –
12 | Clc1cccc(COc2nn(Cc3cccc4ccccc34)c3ccc(NCCCN4CCCCC4)cc23)c1Cl [Compound 5] | > 10 | – | > 10 | 2.7 ± 0.1 | – | 0.8 ± 0.1 μmol of Trolox equivalents/μmol of tested compound | – | – | – | – | – | – | –
13 | O=C(Nc1ccc2c(c1)c(OCc1cccc(Cl)c1Cl)nn2Cc1cccc2ccccc12)N1CCCC1 [Compound 12] | > 10 | – | > 10 | > 10 | – | 0.5 ± 0.1 μmol of Trolox equivalents/μmol of tested compound | 43 | – | – | – | – | – | –
14 | Nc1ccc2c(c1)c(OCc1cccc3ccccc13)nn2Cc1ccc(Cl)c(Cl)c1 [Compound 34] | 3.5 ± 0.6 | 32 | > 10 | – | – | 0.33 ± 0.05 μmol of Trolox equivalents/μmol of tested compound | 72 | – | – | – | – | very slight inhibition | –
15 | Nc1ccc2c(c1)c(OCc1ccccc1)nn2Cc1cccc(Cl)c1Cl [Compound 29] | > 10 | – | > 10 | > 10 | – | 0.7 ± 0.1 μmol of Trolox equivalents/μmol of tested compound | – | – | – | – | – | – | –
16 | COc1cc2c(cc1OC)C(=O)C(CC1CCN(Cc3ccccc3)CC1)C2 (stereo not shown) [donepezil, reference compound] | – | – | – | – | – | – | – | – | – | – | – | – | mixed type
17 | O=C(Nc1ccc2c(c1)c(OCc1ccccc1)nn2Cc1ccccc1)c1cccc(Cl)c1Cl [Compound 7] | 7.6 ± 0.3 | – | > 10 | – | – | 0 μmol of Trolox equivalents/μmol of tested compound | 60 | – | – | – | – | – | –
